Reference: PubChem BioAssay (NCI)
Several values for one entry are separate records, joined by “and”; a condition that tells them apart may be missing. Equal values may be shown once.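 Briefly, cells in 96-well plates were exposed to five compound concentrations for 48 h, and endpoints were estimated by linear interpolation. Here, GI50 denotes the concentration required for 50% inhibition of growth. TGI marks complete inhibition of growth.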

Legend:
Assay in all cases: growth of human tumour cells (NCI), 48 h
HOP-62 NSCLC = tested on: HOP-62 NSCLC
COLO 205 colon = tested on: COLO 205 colon
SF-539 CNS = tested on: SF-539 CNS
SK-MEL-2 melanoma = tested on: SK-MEL-2 melanoma
OVCAR-8 ovarian = tested on: OVCAR-8 ovarian
SF-268 CNS = tested on: SF-268 CNS
CCRF-CEM leukemia = tested on: CCRF-CEM leukemia
MALME-3M melanoma = tested on: MALME-3M melanoma
EKVX NSCLC = tested on: EKVX NSCLC
OVCAR-3 ovarian = tested on: OVCAR-3 ovarian

Row | SMILES | GI50 (HOP-62 NSCLC) | TGI (HOP-62 NSCLC) [nM] | GI50 (COLO 205 colon) | TGI (COLO 205 colon) | GI50 (SF-539 CNS) | TGI (SF-539 CNS) | GI50 (SK-MEL-2 melanoma) [nM] | GI50 (OVCAR-8 ovarian) | TGI (OVCAR-8 ovarian) [nM] | GI50 (SF-268 CNS) | TGI (SF-268 CNS) [nM] | GI50 (CCRF-CEM leukemia) | TGI (CCRF-CEM leukemia) [nM] | GI50 (MALME-3M melanoma) [nM] | GI50 (EKVX NSCLC) | TGI (EKVX NSCLC) [nM] | GI50 (OVCAR-3 ovarian) | TGI (OVCAR-3 ovarian) | TGI (SK-MEL-2 melanoma) [nM] | TGI (MALME-3M melanoma) [nM]
1 | COC(=O)[C@@H](C)C[C@H](Cc1ccccc1)NC(=O)c1csc([C@@H](C[C@H](C(C)C)N(C)C(=O)[C@@H](NC(=O)[C@H]2CCCCN2C)C2CC2)OC(C)=O)n1 | 0.745 nM and 1.65 nM | > 16500 | 0.369 nM and < 1.65 nM | 3.36 nM and < 1.65 nM | 1.25 nM and 1.65 nM | 4.48 nM and 2.57 nM | 0.344 | 0.629 nM and 1.65 nM | > 16500 | 0.594 nM and 1.65 nM | > 16500 | 0.621 nM and 1.65 nM | > 16500 | 0.312 | 4.6 nM and 1.65 nM | > 16500 | 0.0497 nM and < 1.65 nM | 3.79 nM and < 1.65 nM | – | –
2 | CC(=O)OCC1OC(n2c(-c3ccc(C)cc3)cc(-c3ccccc3)c(C#N)c2=O)C(OC(C)=O)C(OC(C)=O)C1OC(C)=O (stereo not drawn) | – | > 100000 | – | > 100000 nM | – | > 100000 nM | – | – | > 100000 | – | > 100000 | – | > 100000 | – | – | > 100000 | – | > 100000 nM | > 100000 | > 100000
3 | O=C1c2ccccc2S(=O)(=O)c2cc(-c3nn[nH]n3)ccc21 | – | > 100000 | – | > 100000 nM | – | > 100000 nM | – | – | > 100000 | – | > 100000 | – | > 100000 | – | – | > 100000 | – | > 100000 nM | > 100000 | > 100000
4 | CCOC(=O)c1[nH]c(COC(C)=O)c2c1CCCCCCCCCC2 | – | > 100000 | – | > 100000 nM | – | > 100000 nM | – | – | > 100000 | – | > 100000 | – | > 100000 | – | – | > 100000 | – | > 100000 nM | > 100000 | > 100000
5 | O=C1C(=O)c2cccnc2-c2ncccc21 | 225 nM | 882 | 1030 nM | 2510 nM | 184 nM | 502 nM | 710 | 166 nM | 727 | 224 nM | 1010 | 79.7 nM | 618 | 215 | 322 nM | 1290 | 193 nM | 503 nM | 2350 | 769
6 | COc1cccc(NC(=O)/C(Cc2nc3ccccc3nc2C)=N/NC(=O)C[n+]2ccccc2)c1 | – | > 100000 | – | 44600 nM | – | > 100000 nM | – | – | > 100000 | – | > 100000 | – | > 100000 | – | – | > 100000 | – | > 100000 nM | > 100000 | > 100000
7 | C=C1C(=O)O[C@H]2[C@H]1CC/C(Cn1cc(-c3ccccc3C(F)(F)F)nn1)=C\CC[C@@]1(C)O[C@@H]21 | 4720 nM | 18700 | 1980 nM | 3810 nM | 1760 nM | 3560 nM | 2450 | 2230 nM | 6970 | 2090 nM | 5250 | 767 nM | 10100 | 1700 | 2320 nM | 7120 | 1040 nM | 2330 nM | 5780 | 3560
8 | Cn1cc2ccccc2c1-c1nc(F)nc(OCC(=O)[C@H]2CCC3[C@@H]4CCC5=CC(=O)CC[C@]5(C)C4[C@@H](O)C[C@@]32C)n1 (stereo partly drawn) | – | 42700 | – | 40100 nM | – | 35100 nM | – | – | 18500 | – | 33300 | – | 27500 | – | – | 58800 | – | 33200 nM | 31300 | 33800
